According to the supplement of paper PMC12463676, “Small-molecule dissolution of stress granules by redox modulation benefits ALS models” (Nature Chemical Biology, 2025):

Assays:
[1] = compound: NC(=O)CCCCC1CCSS1 [lipoamide]; experiment: thermal stability z-score vs DMSO; higher = more thermally stabilized by treatment; details: HeLa, lipoamide concentration 100 µM
Protocol: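 Cellular thermal proteome profiling in HeLa cells. Cells were treated with 100 µM lipoamide for 1 h, with or without 1 mM arsenate for a further 1 h, then heated to ten temperatures (37-66.3 °C), and soluble protein was quantified by TMT mass spectrometry relative to 0.1% DMSO controls. The thermal stability score (sum of log2 fold changes minus the abundance score) was transformed to a z-score; mean of n = 3 experiments.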

[2] = compound: O=[As]([O-])(O)O.[K+] [potassium arsenate]; experiment: as above; details: HeLa; arsenate concentration 1 mM
Protocol: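 Cellular thermal proteome profiling in HeLa cells treated with 1 mM arsenate for 1 h (DMSO pretreatment), heated to ten temperatures (37-66.3 °C). Soluble protein was quantified by TMT mass spectrometry relative to DMSO controls; the thermal stability score was transformed to a z-score; mean of n = 3 experiments.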

[3] = arsenate co-treatment: 1 mM arsenate 1 h
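Further: each temperature applied for 3 min, abundance score taken as mean log2 fold change at the two lowest temperatures, z-score obtained by mean subtraction and division by SD.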

UniProt Q9Y6I9, sequence (Q9Y6I9 whole entry): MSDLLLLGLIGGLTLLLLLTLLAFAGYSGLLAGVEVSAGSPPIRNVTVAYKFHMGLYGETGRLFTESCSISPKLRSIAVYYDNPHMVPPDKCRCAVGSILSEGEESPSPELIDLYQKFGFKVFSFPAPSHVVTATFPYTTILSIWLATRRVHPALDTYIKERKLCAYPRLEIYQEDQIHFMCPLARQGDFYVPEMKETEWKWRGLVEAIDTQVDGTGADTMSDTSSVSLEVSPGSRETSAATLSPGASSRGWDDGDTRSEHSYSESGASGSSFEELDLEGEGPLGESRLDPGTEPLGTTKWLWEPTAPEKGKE
UniProt Q86VW0, sequence (Q86VW0 whole entry): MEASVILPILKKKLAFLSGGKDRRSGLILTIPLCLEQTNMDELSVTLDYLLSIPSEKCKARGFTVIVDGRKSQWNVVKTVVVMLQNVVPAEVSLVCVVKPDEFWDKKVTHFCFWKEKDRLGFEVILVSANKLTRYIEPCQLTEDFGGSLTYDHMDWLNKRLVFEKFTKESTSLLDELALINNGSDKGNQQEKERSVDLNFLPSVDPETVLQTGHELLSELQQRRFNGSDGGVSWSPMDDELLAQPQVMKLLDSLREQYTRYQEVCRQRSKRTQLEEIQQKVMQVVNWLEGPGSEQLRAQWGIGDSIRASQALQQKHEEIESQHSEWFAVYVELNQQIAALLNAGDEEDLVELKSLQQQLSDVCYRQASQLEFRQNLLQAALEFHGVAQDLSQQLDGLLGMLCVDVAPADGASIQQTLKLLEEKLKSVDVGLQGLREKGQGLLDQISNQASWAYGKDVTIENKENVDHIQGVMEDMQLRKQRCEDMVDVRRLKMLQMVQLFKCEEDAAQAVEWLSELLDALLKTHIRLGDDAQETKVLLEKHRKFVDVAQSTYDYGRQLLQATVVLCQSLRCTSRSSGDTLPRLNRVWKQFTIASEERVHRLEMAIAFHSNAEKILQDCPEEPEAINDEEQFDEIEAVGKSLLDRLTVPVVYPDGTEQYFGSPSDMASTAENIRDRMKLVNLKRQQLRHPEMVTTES
UniProt Q5JTH9, sequence (Q5JTH9 whole entry): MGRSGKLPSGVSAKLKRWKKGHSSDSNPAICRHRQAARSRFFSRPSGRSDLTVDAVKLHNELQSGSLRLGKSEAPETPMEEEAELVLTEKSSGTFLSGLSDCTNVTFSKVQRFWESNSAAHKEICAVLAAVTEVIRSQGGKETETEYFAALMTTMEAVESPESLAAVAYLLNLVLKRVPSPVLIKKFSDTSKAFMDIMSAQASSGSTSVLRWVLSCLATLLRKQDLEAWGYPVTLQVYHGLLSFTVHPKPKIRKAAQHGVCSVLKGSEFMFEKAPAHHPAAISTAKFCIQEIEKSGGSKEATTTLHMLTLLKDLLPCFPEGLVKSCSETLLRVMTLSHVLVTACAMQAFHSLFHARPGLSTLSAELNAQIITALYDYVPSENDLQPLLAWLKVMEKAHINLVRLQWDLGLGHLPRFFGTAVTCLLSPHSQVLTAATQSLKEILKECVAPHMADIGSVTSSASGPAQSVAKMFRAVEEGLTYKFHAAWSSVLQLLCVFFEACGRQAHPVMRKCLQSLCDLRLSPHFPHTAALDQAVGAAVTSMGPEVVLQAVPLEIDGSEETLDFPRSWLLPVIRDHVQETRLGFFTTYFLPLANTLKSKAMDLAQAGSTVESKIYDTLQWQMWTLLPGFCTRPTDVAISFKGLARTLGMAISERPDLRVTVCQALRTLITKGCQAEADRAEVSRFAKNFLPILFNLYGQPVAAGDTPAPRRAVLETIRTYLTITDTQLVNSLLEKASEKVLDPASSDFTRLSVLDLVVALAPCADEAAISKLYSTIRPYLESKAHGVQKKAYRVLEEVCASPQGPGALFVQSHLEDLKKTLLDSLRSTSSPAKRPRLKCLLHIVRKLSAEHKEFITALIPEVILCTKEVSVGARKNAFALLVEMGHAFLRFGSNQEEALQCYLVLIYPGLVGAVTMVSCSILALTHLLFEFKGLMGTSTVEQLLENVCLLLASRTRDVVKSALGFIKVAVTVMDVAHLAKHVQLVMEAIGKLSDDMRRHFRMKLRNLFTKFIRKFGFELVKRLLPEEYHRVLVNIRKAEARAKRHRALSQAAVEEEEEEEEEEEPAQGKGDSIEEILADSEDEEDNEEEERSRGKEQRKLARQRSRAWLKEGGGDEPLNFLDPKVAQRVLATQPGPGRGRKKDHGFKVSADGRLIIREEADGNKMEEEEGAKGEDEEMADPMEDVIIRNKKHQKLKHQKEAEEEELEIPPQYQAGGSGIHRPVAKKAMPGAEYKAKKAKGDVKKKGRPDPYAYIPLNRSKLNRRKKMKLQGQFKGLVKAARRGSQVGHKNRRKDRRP
UniProt P29083, sequence (P29083 whole entry): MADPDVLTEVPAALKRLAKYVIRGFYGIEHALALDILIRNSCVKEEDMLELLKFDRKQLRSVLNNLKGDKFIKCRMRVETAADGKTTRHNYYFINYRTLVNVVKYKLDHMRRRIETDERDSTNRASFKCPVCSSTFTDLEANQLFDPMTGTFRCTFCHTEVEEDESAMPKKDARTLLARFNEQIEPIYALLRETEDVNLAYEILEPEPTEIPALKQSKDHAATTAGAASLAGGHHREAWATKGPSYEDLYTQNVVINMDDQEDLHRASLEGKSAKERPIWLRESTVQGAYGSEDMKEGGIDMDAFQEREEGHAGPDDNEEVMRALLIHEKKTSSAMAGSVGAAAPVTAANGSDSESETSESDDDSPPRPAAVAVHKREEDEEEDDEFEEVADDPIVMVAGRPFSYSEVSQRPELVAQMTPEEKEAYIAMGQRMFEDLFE
UniProt Q9UHC7, sequence (Q9UHC7 whole entry): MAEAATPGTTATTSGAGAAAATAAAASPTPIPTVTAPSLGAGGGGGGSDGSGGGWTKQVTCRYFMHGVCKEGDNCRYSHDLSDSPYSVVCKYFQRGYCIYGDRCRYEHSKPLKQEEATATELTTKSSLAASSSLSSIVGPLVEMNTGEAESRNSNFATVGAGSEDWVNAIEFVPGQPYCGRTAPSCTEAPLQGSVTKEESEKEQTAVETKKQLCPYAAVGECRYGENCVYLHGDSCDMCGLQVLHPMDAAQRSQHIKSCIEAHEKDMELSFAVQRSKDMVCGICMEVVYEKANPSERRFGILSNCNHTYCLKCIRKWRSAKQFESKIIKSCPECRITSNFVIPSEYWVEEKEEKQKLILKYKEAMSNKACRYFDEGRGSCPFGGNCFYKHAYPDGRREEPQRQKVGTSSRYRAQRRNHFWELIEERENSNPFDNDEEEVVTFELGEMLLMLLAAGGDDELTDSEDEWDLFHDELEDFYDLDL
UniProt Q9NPI1, sequence (Q9NPI1 whole entry): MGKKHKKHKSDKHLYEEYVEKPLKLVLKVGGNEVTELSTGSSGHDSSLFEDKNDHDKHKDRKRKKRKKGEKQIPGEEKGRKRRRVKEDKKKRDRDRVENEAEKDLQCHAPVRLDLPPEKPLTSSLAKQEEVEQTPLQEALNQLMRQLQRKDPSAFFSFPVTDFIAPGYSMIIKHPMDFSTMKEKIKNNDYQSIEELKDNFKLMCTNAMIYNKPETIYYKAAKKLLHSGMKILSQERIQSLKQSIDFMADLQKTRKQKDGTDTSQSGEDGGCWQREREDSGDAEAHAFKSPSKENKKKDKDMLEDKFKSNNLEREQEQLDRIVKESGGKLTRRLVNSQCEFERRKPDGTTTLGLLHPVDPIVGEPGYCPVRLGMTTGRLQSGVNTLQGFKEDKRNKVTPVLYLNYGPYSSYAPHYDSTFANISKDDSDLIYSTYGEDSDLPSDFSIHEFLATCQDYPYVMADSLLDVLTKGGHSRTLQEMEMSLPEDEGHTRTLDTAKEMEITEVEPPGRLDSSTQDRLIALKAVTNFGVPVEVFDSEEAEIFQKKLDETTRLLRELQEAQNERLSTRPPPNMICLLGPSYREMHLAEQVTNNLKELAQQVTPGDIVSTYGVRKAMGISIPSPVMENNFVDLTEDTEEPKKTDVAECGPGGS
UniProt P46926, sequence (P46926 whole entry): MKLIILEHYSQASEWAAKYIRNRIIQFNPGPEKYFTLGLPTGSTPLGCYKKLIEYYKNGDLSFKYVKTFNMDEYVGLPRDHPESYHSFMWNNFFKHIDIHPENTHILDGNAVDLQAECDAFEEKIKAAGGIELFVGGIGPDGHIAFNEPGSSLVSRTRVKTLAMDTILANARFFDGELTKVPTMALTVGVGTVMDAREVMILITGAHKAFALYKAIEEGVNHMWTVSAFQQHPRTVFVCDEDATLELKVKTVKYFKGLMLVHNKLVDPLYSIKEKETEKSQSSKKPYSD
UniProt Q6P4A7, sequence (Q6P4A7 whole entry): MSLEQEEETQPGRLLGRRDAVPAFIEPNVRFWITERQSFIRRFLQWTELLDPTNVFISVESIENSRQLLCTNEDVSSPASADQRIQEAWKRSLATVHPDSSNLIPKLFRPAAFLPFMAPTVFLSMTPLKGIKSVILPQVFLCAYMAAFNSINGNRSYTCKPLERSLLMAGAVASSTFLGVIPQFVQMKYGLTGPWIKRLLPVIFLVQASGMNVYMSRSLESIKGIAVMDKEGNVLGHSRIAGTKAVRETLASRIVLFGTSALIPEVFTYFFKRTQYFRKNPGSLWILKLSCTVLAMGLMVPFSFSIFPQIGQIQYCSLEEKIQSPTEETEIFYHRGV
UniProt Q9H2H8, sequence (Q9H2H8 whole entry): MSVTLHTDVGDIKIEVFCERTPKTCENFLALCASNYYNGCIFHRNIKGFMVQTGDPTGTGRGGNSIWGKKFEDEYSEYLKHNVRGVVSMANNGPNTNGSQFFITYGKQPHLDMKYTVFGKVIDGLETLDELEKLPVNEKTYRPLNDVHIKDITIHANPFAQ
UniProt Q9Y3E7, sequence (Q9Y3E7 whole entry): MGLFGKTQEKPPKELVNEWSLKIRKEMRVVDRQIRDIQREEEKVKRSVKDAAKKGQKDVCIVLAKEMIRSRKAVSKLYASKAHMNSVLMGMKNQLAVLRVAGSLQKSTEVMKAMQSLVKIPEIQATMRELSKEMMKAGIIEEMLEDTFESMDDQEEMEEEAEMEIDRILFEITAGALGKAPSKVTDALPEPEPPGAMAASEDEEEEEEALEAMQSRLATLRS

Target	thermal stability z-score [1, 3]	thermal stability z-score ([1]; arsenate co-treatment: none)	thermal stability z-score [2]
SFXN4 (UniProt Q6P4A7)	-1.11	-0.872	0.207
RASA3 (UniProt Q14644)	0.0194	0.0519	0.0995
VIMP (UniProt Q9BQE4)	0.458	0.457	-0.948
SNAPC5 (UniProt O75971)	-0.0463	0.216	0.158
CUTA (UniProt O60888)	1.1	0.709	-0.0462
ADSSL1 (UniProt Q8N142)	0.111	0.223	0.237
NDUFA10 (UniProt O95299)	-0.327	-0.199	-0.167
TEX264 (UniProt Q9Y6I9)	-0.151	-0.929	-0.568
TRIM47 (UniProt Q96LD4)	-0.148	-0.0936	0.944
ATRAID (UniProt Q6UW56)	-2.95	-2.55	0.451
DEK (UniProt P35659)	0.116	0.695	-0.316
SDR16C5 (UniProt Q8N3Y7)	-0.26	-0.252	0.0129
HELZ (UniProt P42694)	-0.153	-0.0553	-0.122
CCDC50 (UniProt Q8IVM0)	0.557	0.248	-0.0338
PSMD2 (UniProt Q13200)	-0.29	-0.343	-0.333
TRRAP (UniProt Q9Y4A5)	0.918	0.759	-1.16
TREX1 (UniProt Q9NSU2)	-0.5	-0.0932	-2.07
FAM120C (UniProt Q9NX05)	-0.0604	-0.0122	-0.296
CALCOCO1 (UniProt Q9P1Z2)	0.179	0.0847	0.0728
ATG16L1 (UniProt Q676U5)	0.346	0.282	-0.533
LSM14B (UniProt Q9BX40)	-0.354	0.0171	0.218
DAZAP1 (UniProt Q96EP5)	1.15	1.07	0.243
RTTN (UniProt Q86VV8)	-0.0275	-0.0536	-0.117
JTB (UniProt O76095)	0.634	0.0713	0.688

Target	thermal stability z-score [1, 3]	thermal stability z-score ([1]; arsenate co-treatment: none)	thermal stability z-score [2]
CLPX (UniProt O76031)	-0.306	-0.172	0.139
CANT1 (UniProt Q8WVQ1)	0.0524	0.482	-0.0872
USP9X (UniProt Q93008)	-0.133	-0.258	0.115
MAP2K1 (UniProt Q02750)	-0.382	-0.187	-0.118
TMCO1 (UniProt Q9UM00)	0.0581	0.305	-0.687
ECT2 (UniProt Q9H8V3)	-0.0726	-0.00204	-0.475
DST (UniProt Q03001)	0.0624	-0.113	-0.103
TTC38 (UniProt Q5R3I4)	1.43	1.43	1.01
GABPB1 (UniProt Q06547)	0.17	0.498	5.01
CC2D1A (UniProt Q6P1N0)	0.117	0.0816	-0.0172
CPSF1 (UniProt Q10570)	0.324	0.168	-0.123
C12ORF10 (UniProt Q9HB07)	-0.0259	-1.16	0.0961
CASP3 (UniProt P42574)	0.382	-0.0479	-0.737
GNPDA1 (UniProt P46926)	0.699	0.687	0.272
FXN (UniProt Q16595)	0.688	0.447	1.14
SNAP25 (UniProt P60880)	0.86	0.512	-0.723
CHMP3 (UniProt Q9Y3E7)	0.271	0.481	0.291
SESTD1 (UniProt Q86VW0)	0.202	0.128	0.352
LAP3 (UniProt P28838)	0.405	0.407	1.29
MRPL24 (UniProt Q96A35)	-0.411	-0.311	-0.261
TMEM23|SGMS1	0.177	-0.142	-0.151
MKRN1 (UniProt Q9UHC7)	-0.0831	-0.0834	-0.138
NNT (UniProt Q13423)	0.176	0.166	0.0461
GOLGA5 (UniProt Q8TBA6)	0.419	0.582	0.197

Target	thermal stability z-score [1, 3]	thermal stability z-score ([1]; arsenate co-treatment: none)	thermal stability z-score [2]
DNASE2 (UniProt O00115)	0.424	0.747	0.114
PRUNE (UniProt Q86TP1)	-0.709	-0.433	0.291
TARDBP (UniProt Q13148)	0.125	0.504	-0.755
AMPD2 (UniProt Q01433)	0.297	-0.25	0.172
ACAD11 (UniProt Q709F0)	-0.363	0.0251	-0.343
PAPSS2 (UniProt O95340)	-0.146	-0.156	1.57
LTBR (UniProt P36941)	-2.06	-1.66	0.85
NUDT9 (UniProt Q9BW91)	-0.674	-0.346	0.0652
GTF2E1 (UniProt P29083)	-0.0787	0.126	0.733
PPIL3 (UniProt Q9H2H8)	-0.0679	0.0318	-0.32
BRD7 (UniProt Q9NPI1)	-0.355	-0.169	-0.517
MGME1 (UniProt Q9BQP7)	0.201	0.117	-0.00686
KLHL11 (UniProt Q9NVR0)	0.651	-0.0811	-0.421
IDH3A (UniProt P50213)	-0.0281	-0.439	-1.11
UBR5 (UniProt O95071)	-0.165	-0.0498	1.13
HMGN3 (UniProt Q15651)	1.36	0.402	0.493
ZPR1 (UniProt O75312)	0.753	-0.187	-1.09
FAM174A (UniProt Q8TBP5)	0.351	0.647	1.14
RRP12 (UniProt Q5JTH9)	0.612	0.819	0.0662
PPIF (UniProt P30405)	0.26	0.29	0.0382
RUFY1 (UniProt Q96T51)	-0.702	-0.00916	0.39
ERCC6L (UniProt Q2NKX8)	-0.457	-0.258	0.265
WDR34 (UniProt Q96EX3)	-0.251	-0.215	-0.776
